In paper PMC5171800, “Genes encoding norcoclaurine synthase occur as tandem fusions in the Papaveraceae” (Scientific Reports, 2016):
Where two headings read alike, the source gives them in different places.

What was measured:
CCHNCS2 = system: T1, CCHNCS2; test: CD spectroscopy at […] nm, (S)-norcoclaurine formation; assay type: biochemical, Corydalis cheilanthifolia; conditions: saturating dopamine; pH 7.3, 37 °C, 50 mM phosphate; 4-HPAA kinetics sigmoidal, table gives Hill coefficient for dopamine
T1 construct: full-length natural tandem fusion of two NCS domains; His-tagged (pET29b), E. coli, TALON purified (purification section prints CCHNCS1)

NDONCS3 = system: T2, NDONCS3; test: as above; assay type: biochemical, Nandina domestica; conditions: pH 7.3, 37 °C, 50 mM phosphate
T2 construct: full-length single-domain polypeptide with signal peptide region retained; His-tagged (pET29b), E. coli, TALON purified

O=CCc1ccc(O)cc1 = test: purified protein; assay type: biochemical, Thalictrum flavum; conditions: saturating dopamine, pH 7.3, 37 °C, 50 mM phosphate, 4-HPAA kinetics sigmoidal, table gives Hill coefficient for dopamine

Compound: O=CCc1ccc(O)cc1 [4-hydroxyphenylacetaldehyde]
- Km (CCHNCS2): 1830 ± 697 µM
- Km (NDONCS3; saturating dopamine, 4-HPAA kinetics sigmoidal, table gives Hill coefficient for dopamine, read-out: Km (μM) (4-HPAA)): 480 ± 120 µM

Compound: NCCc1ccc(O)c(O)c1 [dopamine]
- Km (NDONCS3; saturating 4-HPAA, Hill fit by table (the source assigns sigmoidal kinetics to 4-HPAA), read-out: K’m (μM) (dopamine)): 347 ± 35 µM

Compound: TFLNCS2Δ25 (Thalictrum flavum)
- Km (O=CCc1ccc(O)cc1): 494 ± 112 µM
- kcat (O=CCc1ccc(O)cc1): 2.4 ± 0.2 s⁻¹
